target: PI3Kδ (p110δ/p85α) (Homo sapiens (Human), UniProt O00329); experiment: Example A3: PI3Kδ scintillation proximity assay; assay type: biochemical; details: assay not specified
In short: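 p110δ/p85α (4 nM) phosphorylated 20 μM PIP2 with 20 μM ATP plus [γ-33P]ATP in MOPS pH 6.7, MgCl2, DTT, CHAPS, 0.5% DMSO, at RT. Stopped with EDTA/excess ATP, product captured on WGA SPA beads overnight and counted; IC50 from percent control activity versus log inhibitor.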

Chain of PI3Kδ (p110δ/p85α) (O00329 whole entry): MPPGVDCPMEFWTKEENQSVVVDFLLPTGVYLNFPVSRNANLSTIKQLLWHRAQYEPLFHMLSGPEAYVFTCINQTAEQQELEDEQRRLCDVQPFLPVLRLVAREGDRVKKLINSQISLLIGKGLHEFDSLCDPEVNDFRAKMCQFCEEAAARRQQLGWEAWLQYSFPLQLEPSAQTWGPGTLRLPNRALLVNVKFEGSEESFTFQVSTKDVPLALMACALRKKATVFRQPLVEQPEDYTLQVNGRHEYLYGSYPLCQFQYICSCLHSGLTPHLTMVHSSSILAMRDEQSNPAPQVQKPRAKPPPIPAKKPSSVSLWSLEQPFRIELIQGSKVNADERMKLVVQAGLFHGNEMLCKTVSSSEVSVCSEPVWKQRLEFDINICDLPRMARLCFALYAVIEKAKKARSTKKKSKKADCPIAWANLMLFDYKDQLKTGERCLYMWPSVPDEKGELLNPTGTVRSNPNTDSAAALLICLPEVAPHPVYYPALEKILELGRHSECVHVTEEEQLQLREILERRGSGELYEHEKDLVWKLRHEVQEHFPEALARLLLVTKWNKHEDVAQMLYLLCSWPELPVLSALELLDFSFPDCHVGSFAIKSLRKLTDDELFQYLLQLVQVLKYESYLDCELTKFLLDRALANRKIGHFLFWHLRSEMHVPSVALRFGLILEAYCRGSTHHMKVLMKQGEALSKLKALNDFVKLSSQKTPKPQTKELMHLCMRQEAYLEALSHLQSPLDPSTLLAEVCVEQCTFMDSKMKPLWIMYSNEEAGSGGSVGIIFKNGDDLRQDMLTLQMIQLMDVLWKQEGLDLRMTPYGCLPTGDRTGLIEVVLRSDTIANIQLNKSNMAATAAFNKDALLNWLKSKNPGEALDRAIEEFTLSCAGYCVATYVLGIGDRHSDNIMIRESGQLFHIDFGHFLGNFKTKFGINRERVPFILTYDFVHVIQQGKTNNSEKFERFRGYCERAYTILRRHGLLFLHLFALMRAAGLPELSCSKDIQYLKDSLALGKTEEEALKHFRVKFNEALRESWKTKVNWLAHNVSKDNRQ
Chain of PI3Kδ (p110δ/p85α) (P27986 whole entry partner): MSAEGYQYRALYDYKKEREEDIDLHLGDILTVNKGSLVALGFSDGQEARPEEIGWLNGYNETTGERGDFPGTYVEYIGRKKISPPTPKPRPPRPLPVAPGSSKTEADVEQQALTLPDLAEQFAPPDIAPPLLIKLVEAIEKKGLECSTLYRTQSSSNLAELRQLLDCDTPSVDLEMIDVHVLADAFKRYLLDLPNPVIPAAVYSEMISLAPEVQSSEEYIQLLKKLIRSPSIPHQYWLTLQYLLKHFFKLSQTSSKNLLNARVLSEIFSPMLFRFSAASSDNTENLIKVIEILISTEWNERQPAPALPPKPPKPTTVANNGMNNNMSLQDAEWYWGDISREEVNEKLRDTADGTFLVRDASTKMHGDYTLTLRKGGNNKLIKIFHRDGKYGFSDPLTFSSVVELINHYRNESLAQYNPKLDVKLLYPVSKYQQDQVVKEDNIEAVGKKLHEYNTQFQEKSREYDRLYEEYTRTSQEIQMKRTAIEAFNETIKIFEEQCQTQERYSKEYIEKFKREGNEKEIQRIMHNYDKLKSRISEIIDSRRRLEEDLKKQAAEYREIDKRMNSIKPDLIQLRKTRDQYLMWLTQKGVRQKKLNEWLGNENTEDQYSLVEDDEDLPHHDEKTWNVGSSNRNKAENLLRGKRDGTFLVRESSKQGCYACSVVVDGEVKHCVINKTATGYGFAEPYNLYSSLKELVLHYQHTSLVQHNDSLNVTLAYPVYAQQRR

relative activity among the four separated diastereomers (peaks 1-4) | SMILES
most active enantiomer | CCOc1c(C(C)n2nc(C)c3c(N)ncnc32)cc(Cl)c(F)c1C1CNC(=O)O1 (stereo not drawn) [Example 357, 5-{3-[1-(4-amino-3-methyl-1H-pyrazolo[3,4-d]pyrimidin-1-yl)ethyl]-5-chloro-2-ethoxy-6-fluorophenyl}-1,3-oxazolidin-2-one]

same assay, conditions: scintillation proximity assay, 20 μM ATP, 4 nM PI3Kδ; read-out: PI3Kδ SPA IC50

SMILES | IC50 [nM]
COc1c(C(C)n2nc(C(F)F)c3c(N)ncnc32)cc(C#N)c(F)c1C1CN(C[C@H](C)O)C1 (stereo partly drawn) [Example 77, 5-(1-(4-Amino-3-(difluoromethyl)-1H-pyrazolo[3,4-d]pyrimidin-1-yl)ethyl)-2-fluoro-3-(1-((S)-2-hydroxypropyl)azetidin-3-yl)-4-methoxybenzonitrile] | < 10
COc1c(C(C)n2nc(C)c3c(N)ncnc32)cc(Cl)c(C)c1-c1ccc(C(=O)N(C)C)nc1 (stereo not drawn) [Example 11, 5-{3-[1-(4-Amino-3-methyl-1H-pyrazolo[3,4-d]pyrimidin-1-yl)ethyl]-5-chloro-2-methoxy-6-methylphenyl}-N,N-dimethylpyridine-2-carboxamide bis(trifluoroacetate)] | < 10
CNC(=O)N1CC(c2c(C)c(Cl)cc(C(C)n3nc(C)c4c(N)ncnc43)c2OC)C1 (racemic) [Example 10, 3-{3-[1-(4-Amino-3-methyl-1H-pyrazolo[3,4-d]pyrimidin-1-yl)ethyl]-5-chloro-2-methoxy-6-methylphenyl}-N-methylazetidine-1-carboxamide] | < 10
COc1c(C(C)n2nc(C)c3c(N)ncnc32)cc(Cl)c(F)c1C1CN(CCO)C1 (racemic) [Example 71, 2-(3-{3-[1-(4-Amino-3-methyl-1H-pyrazolo[3,4-d]pyrimidin-1-yl)ethyl]-5-chloro-6-fluoro-2-methoxyphenyl}azetidin-1-yl)ethanol] | < 10
CCOc1c(C(C)n2nc(C)c3c(N)ncnc32)cc(Cl)c(C)c1-c1ccnc(C(=O)N(C)C)c1 (single isomer, unassigned) [Example 201] | < 10
CCOc1c(C(C)n2nc(-c3ccc(C(=O)NC)nc3)c3c(N)ncnc32)cc(Cl)c(C)c1-c1ccc(C(=O)N(C)C)nc1 (racemic) [Example 59, 5-{3-[1-(4-amino-3-{6-[(methylamino)carbonyl]pyridin-3-yl}-1H-pyrazolo[3,4-d]pyrimidin-1-yl)ethyl]-5-chloro-2-ethoxy-6-methylphenyl}-N,N-dimethylpyridine-2-carboxamide tris(trifluoroacetate)] | < 10
COc1c(C(C)n2nc(C)c3c(N)ncnc32)cc(Cl)c(C)c1C1CN(C2COC2)C1 (racemic) [Example 63, 1-{1-[5-chloro-2-methoxy-4-methyl-3-(1-oxetan-3-ylazetidin-3-yl)phenyl]ethyl}-3-methyl-1H-pyrazolo[3,4-d]pyrimidin-4-amine] | < 10

Next, values leading:

IC50 [nM] | SMILES
< 10 | CCOc1c(C(C)n2nc(C)c3c(N)ncnc32)cc(Cl)c(C#N)c1C1CNC1 (single isomer, unassigned) [Example 212, 4-[1-(4-Amino-3-methyl-1H-pyrazolo[3,4-d]pyrimidin-1-yl)ethyl]-2-azetidin-3-yl-6-chloro-3-ethoxybenzonitrile]
< 10 | COc1c(C(C)n2cc(C)c(=O)c3c(N)ncnc32)cc(Cl)c(C)c1-c1ccc(C(=O)N(C)C)nc1 (stereo not drawn) [Example 360, 5-{3-[1-(4-Amino-6-methyl-5-oxopyrido[2,3-d]pyrimidin-8(5H)-yl)ethyl]-5-chloro-2-methoxy-6-methylphenyl}-N,N-dimethylpyridine-2-carboxamide bis(trifluoroacetate)]
< 10 | COc1c(C(C)n2nc(C)c3c(N)ncnc32)cc(Cl)c(C)c1C1CN(C(=O)[C@H](C)O)C1 (single isomer, unassigned) [Example 118]
< 10 | COc1c(C(C)n2nc(C)c3c(N)ncnc32)cc(Cl)c(C)c1-c1cnn(C2CCN(C(C)=O)CC2)c1 (single isomer, unassigned) [Example 182, 1-(1-{3-[1-(1-Acetylpiperidin-4-yl)-1H-pyrazol-4-yl]-5-chloro-2-methoxy-4-methylphenyl}ethyl)-3-methyl-1H-pyrazolo[3,4-d]pyrimidin-4-amine]
